{"source": "patent US8236488B2", "about": "“Method of screening for therapeutic compounds for vascular disorders and hypertension based on URAT1 activity modulation” (Human Cell Systems, Inc., priority 2003, dated 2012)", "format_in_all_cases": "cell-based", "key": {"[1]": {"system": "rat VSMCs", "assay": "14C-urate uptake into rat VSMCs in the presence of inhibitors or other organic anions", "conditions": "20 μM 14C-urate, 37° C., 5 minutes; for uric acid uptake into VSMCs in the presence of another organic anion: 100, 250 or 500 μM PAH or lactate; for uric acid uptake into VSMCs in the presence of organic anion transporter inhibitor: 0.1, 0.5 or 1 mM probenecid or 0.5, 1 or 10 μM benzbromarone", "method": "Further, the present inventors examined a mechanism of urate uptake under physiologic conditions (polarized conditions). First, the present inventors examined whether ^14C-urate competed with cold urate for uptake. The ^14C-urate uptake level by rat VSMCs was measured at 37° C. for 5 minutes using an uptake solution containing 20 μM ^14C-urate and 0, 0.1, 1, 5, 10, or 50 mg/dL cold urate. Each of the measurement results is the average±standard deviation of three wells. […] In FIG. 2, a vertical axis represents the ratio (%) of ^14C-urate uptake level determined when the ^14C-urate uptake level in the absence of cold urate is defined as 100%. A horizontal axis represents the concentration of cold urate (mg/dL).\nThe ^14C-urate uptake level was measured at 37° C. for 5 minutes using an uptake solution containing 20 μM ^14C-urate and 0, 0.1, 0.5 or 1 mM probenecid or 0, 0.5, 1 or 10 μM benzbromarone. Each of the measurement results is the average±standard deviation of three wells. […] In FIGS. 3 and 4, a vertical axis represents the ratio (%) of ^14C-urate uptake level determined when the ^14C-urate uptake level in the absence of probenecid (FIG. 3) or benzbromarone (FIG. 4) is defined as 100%. A horizontal axis in FIG. 3 represents the concentration of probenecid (mM), and a horizontal axis in FIG. 4 represents the concentration of benzbromarone (μM). An asterisk (*) in the FIGS. 3 and 4 indicate that there is a significant difference (p<0.05)\nFurther, another test was carried out to examine whether ^14C-urate competed with an organic anion such as para-amino hippurate (PAH) or lactate for uptake. The ^14C-urate uptake level by rat VSMCs was measured at 37° C. for 5 minutes using an uptake solution containing 20 μM ^14C-urate and 0, 100, 250 or 500 μM PAH or 0, 100, 250 or 500 lactate. In addition, the ^14C-urate uptake level by rat VSMCs was also measured using an uptake solution containing 20 μM ^14C-urate and 250 μM uric acid (UA). Each of the measurement results is the average±standard deviation of three wells. […] In FIGS. 5 and 6, a vertical axis represents the ratio (%) of ^14C-urate uptake level determined when the ^14C-urate uptake level in the absence of PAH (FIG. 5) or lactate (FIG. 6) is defined as 100%. A horizontal axis in FIG. 5 represents the concentration of PAH (μM), and a horizontal axis in FIG. 6 represents the concentration of lactate (μM). An asterisk (*) in FIGS. 5 and 6 indicate that there is a significant difference (p<0.05).\n(§1) In the following experiments, vascular smooth muscle cells (VSMCs) derived from rat aorta were used (see Zhang S, Yang Y, et al., Circulation., 2003; 107, 1539-44). These cells were cultured in Dulbecco' s Modified Eagle Medium (DMEM, GIBCO) containing 10% fetal bovine serum (FBS), 1% glutamine, and 1% penicillin/streptomycin solution (100 units/ml penicillin, 100 μg/mL streptomycin; GIBCO). The cultured VSMCs were transferred into wells of a 35-mm six-well culture plate (NUNC), and were then maintained at 37° C. in an atmosphere of 5% carbon dioxide and 95% air in a humidified tissue culture incubator. The culture medium was replaced every 2 days. The VSMCs used in the experiments were 5th to 12th generation cells.\nThe VSMCs (4×10^5 cells) were transferred into wells of a six-well culture plate together with 10% FBS-DMEM. After a lapse of one day, the VSMCs were placed in DMEM medium without serum and incubated over night to stop growth. In all the experiments, cells and all the solutions used were maintained at 37° C. […]"}, "[2]": {"system": "rat VSMCs", "assay": "VSMC proliferation test (3H-thymidine uptake)", "conditions": "24 hour incubation; for effect of inhibitor alone on cell proliferation: absence of uric acid", "method": "Next, the present inventors examined whether an inhibitor of organic anion transportation inhibited the response of VSMC proliferation. Proliferation of VSMCs after 24 hour incubation was determined by measuring the ^3H-thymidine uptake level. This test was carried out for cases where no uric acid (UA) was present, 3 mg/dL uric acid (UA) was present, 3 mg/dL uric acid and 0.1, 0.5 or 1 mM probenecid were present, and 3 mg/dL uric acid (UA) and 0.5, 1 or 10 μM benzbromarone were present. In addition, the test was also carried out for cases where probenecid was present alone and benzbromarone was present alone. Each of the measurement results is the average±standard deviation of three wells (CPM). FIGS. 7 and 8 show the result of the test carried out to examine the effect of probenecid (FIG. 7) or benzbromarone (FIG. 8) on inhibition of response of VSMC proliferation. In FIGS. 7 and 8, a vertical axis represents the ^3H-thymidine uptake (CPM) level, a horizontal axis represents the concentration of uric acid or the concentration of an inhibitor.\nas §1\nThe VSMCs (4×10^5 cells) were transferred into wells of a six-well culture plate together with 10% FBS-DMEM, and were cultured for 24 hours. Then, the cells were starved for 48 hours in 0.5% FBS-DMEM, and the resting VSMCs were stimulated with 3 mg/dL uric acid containing 1 μCi ^3H-thymidine to detect DNA synthesis. Further, 2 μCi/mL ^3H-thymidine was added to each well 2 hours before harvesting the cells. The cells were washed with ice-cooled PBS three times, and were lysed in 1 mL of 1N NaOH. 0.5 mL of the cell lysate was added to 5 mL of scintillation fluid to measure the ^3H-thymidine uptake level by the cells. The ^3H-thymidine uptake level by the cells was expressed as CMP/well and counted in a liquid scintillation counter. Some experiments were carried out in the presence of different concentrations of probenecid or benzbromarone (organic anion transporter inhibitor)."}, "[3]": {"system": "MCP-1", "assay": "ELISA of MCP-1 protein secreted into culture supernatant of rat VSMCs", "conditions": "24 hours", "method": "The present inventors have already reported that uric acid induces the production of MCP-1 (see Non-Patent Document 8). The production of MCP-1 in VSMC was examined. Rat VSMCs were cultured for 24 hours, and the amount of MCP-1 secreted into culture supernatant was measured by ELISA. A test was carried out for cases where 3 mg/dL uric acid (UA) was present, 3 mg/dL uric acid and 1 mM probenecid were present, and probenecid was present alone. In FIG. 10, a vertical axis represents the amount of MCP-1 (pg/1000 cells), and a horizontal axis represents cases where nothing was present (No UA), 3 mg/dL uric acid was present (UA), 3 mg/dL uric acid and 1 mM probenecid were present (UA+Prob), and probenecid was present alone (Prob), and two asterisks (**) indicate that there is a significant difference (p<0.05) when compared to a control. […] The VSMCs (5×10^4 cells/well) were placed in wells of a 24-well plate, and serum was deprived after reaching 70% confluence. Then, media with or without 3 mg/dL uric acid was added and the cells were cultured for 24 hours in the presence or absence of 1 mM probenecid. The amount of MCP-1 protein contained in supernatant was measured by ELISA (OptEIA MCP-1 set, BD Pharmingen), and corrected for cell number. Each experiment was repeated three times."}, "[4]": {"system": "rat VSMCs", "assay": "Urate uptake into VSMCs under polarized and depolarized conditions", "conditions": "20 μM 14C-urate", "method": "Urate uptake into vascular smooth muscle cells (VSMCs) was examined under polarized and depolarized conditions. The ^14C-urate uptake level by VSMCs was measured using an uptake solution containing 20 μM ^14C-urate under polarized conditions (HEPES-physiological saline solution) or depolarized conditions (100 mM KCl uptake solution) for 120 minutes. The ^14C-urate uptake level was measured every one minute. Each of the measurement results is the average±standard deviation of three wells. In FIG. 1, a vertical axis represents the ^14C-urate uptake (CPM) level, a horizontal axis represents time (min), the symbol “□” represents a case where urate uptake was examined under depolarized conditions, and the symbol “♦” represents a case where urate uptake was examined under polarized conditions. […] It can be known that urate is rapidly taken up by rat VSMCs, that under depolarized conditions, urate uptake reaches steady state within about 15 minutes, and that under polarized conditions, urate uptake reaches steady state within about 30 minutes.\nFurther, in still another experiment, urate uptake was examined under polarized or depolarized conditions to determine whether urate uptake was voltage sensitive. The conditions for the experiment were the same as described above except that a culture solution for polarized conditions and a culture solution for depolarized conditions were different. More specifically, after 12 hour starvation, the serum free medium was removed and replaced with 0.45 mL of HEPES-physiological saline solution (PSS) containing 140 mM NaCl, 4 mM KCl, 2 mMCaCl2, 1 mM MgCl2, 5 mM glucose, and 16 mM HEPES-tris (pH 7.4) for polarized conditions, or 100 mM-KCl uptake solution containing 44 mM NaCl, 100 mM KCl, 2 mM CaCl2, 1 mM MgCl2, 5 mM glucose, and 16 mM HEPES-tris (pH 7.4) for depolarized conditions."}}, "data": [{"smiles": "Nc1ccc(C(=O)NCC(=O)O)cc1", "note": "[PAH, para-amino hippurate]", "values": [{"measurement": "uric acid uptake into VSMCs in the presence of another organic anion", "setting": "[1]", "value": "inhibited"}]}, {"smiles": "CCc1oc2ccccc2c1C(=O)c1cc(Br)c(O)c(Br)c1", "note": "[benzbromarone]", "values": [{"measurement": "effect of inhibitor alone on cell proliferation", "setting": "[2]", "value": "The same was observed"}, {"measurement": "uric acid uptake into VSMCs in the presence of organic anion transporter inhibitor", "setting": "[1]", "value": "concentration-dependently reduced"}]}, {"smiles": "CC(O)C(=O)O", "note": "(centres unmarked) [lactate]", "values": [{"measurement": "uric acid uptake into VSMCs in the presence of another organic anion", "setting": "[1]", "value": "more weakly inhibited"}]}, {"smiles": "CCCN(CCC)S(=O)(=O)c1ccc(C(=O)O)cc1", "note": "[probenecid]", "values": [{"measurement": "increase in uric acid-induced production of MCP-1", "setting": "[3]; 3 mg/dL uric acid and 1 mM probenecid", "value": "inhibited"}, {"measurement": "production of MCP-1 with inhibitor alone", "setting": "[3]; probenecid alone, no uric acid", "value": "not inhibited"}, {"measurement": "uric acid-induced increase in the 3H-thymidine uptake level (VSMC proliferation)", "setting": "[2]; 3 mg/dL uric acid plus inhibitor", "value": "concentration-dependently inhibited"}, {"measurement": "effect of inhibitor alone on cell proliferation", "setting": "[2]", "value": "little effect on cell proliferation"}, {"measurement": "uric acid uptake into VSMCs in the presence of organic anion transporter inhibitor", "setting": "[1]", "value": "concentration-dependently reduced"}]}, {"smiles": "O=c1[nH]c(=O)c2[nH]c(=O)[nH]c2[nH]1", "note": "[uric acid]", "values": [{"measurement": "urate uptake level, depolarized versus polarized conditions", "setting": "[4]; up to 120 minutes", "value": "larger under depolarized conditions than under polarized conditions"}, {"measurement": "time until urate uptake reaches steady state", "setting": "[4]; depolarized conditions (100 mM KCl uptake solution)", "value": "≤ 15", "unit": "min"}, {"measurement": "time until urate uptake reaches steady state", "setting": "[4]; polarized conditions (HEPES-physiological saline solution)", "value": "≤ 30", "unit": "min"}, {"measurement": "3H-thymidine uptake level by rat VSMCs", "setting": "[2]; 3 mg/dL uric acid", "value": "increased"}, {"measurement": "competition between 14C-urate and cold urate for uptake by rat VSMCs", "setting": "[1]; 0.1, 1, 5, 10 or 50 mg/dL cold urate", "value": "more effectively competed"}]}]}
